Here are results for eleven molecules from US20180265423A1, “Pesticide Dispersion in Concentrated Aqueous Fertilizer Solution” (priority 2014, published 2018).

Read-outs that look alike come from different tables or passages of the source.

Series [1] is classed as physicochemical. Conditions: for crystal growth in the fertilizer solutions tested: review of table 2. An excerpt: Crystal formation in a suspension concentrate is a complex phenomenon. It is believed that if the solubility of the suspended solid chemical is high in the medium, the suspension concentrate is prone to form crystals of the suspended solid chemical in storage. […] The concentrations of the solid pesticides used in this example were low (at a typical ready-to-apply concentration range). If a solid pesticide forms crystals in such a low concentration, it is not suitable for a ready-to-apply pesticide suspension and mostly likely will not be suitable for a more concentrated suspension in fertilizer. […] By “not suitable” is meant that although it may work to some extent, it is not a good candidate for the pesticide SC.
Samples were prepared by adding the components followed by hand-shaking.

Series [2] is described as follows: Quick screening of crystal growth potential in fertilizer concentrates and water, solid pesticides containing a carboxylic acid group (Example 2). Type of series: physicochemical. Conditions: for suitability for suspension in fertilizer solutions: review of table 3. How it is done: Samples were prepared by adding the components followed by hand-shaking. Samples were placed at 0° C. and observation was made after 1 day, unless otherwise specified.

Series [3] can be described thus: Study of additional surfactants in 10-34-0, 27-4-0 and diluted 10-34-0 fertilizers (Example 8). The series is classed as physicochemical.
Where [4] appears, read: 1 wt % powder pesticide, 98 wt % 10-34-0, 1 wt % Witcolate D-510.
Setting [5] is: 1 wt % powder pesticide, 98 wt % 40% AMS, 1 wt % Witcolate D-510.
The mark [6] stands for this setting: 1 wt % powder pesticide, 98 wt % URAN 32, 1 wt % Witcolate D-510.
Where [7] appears, read: 1 wt % powder pesticide, 98 wt % Water, 1 wt % Witcolate D-510.
Setting [8] is: powder pesticide (glyphosate acid 2, 2,4-D acid 1.3, others 1 wt %) in 10-34-0, no wetting agent.
The mark [9] stands for this setting: powder pesticide (glyphosate acid 2, 2,4-D acid 1.3, others 1 wt %) in 10-34-0, no wetting agent, 0° C., 1 day unless otherwise specified.
The mark [10] stands for this setting: powder pesticide (glyphosate acid 2, 2,4-D acid 1.3, others 1 wt %) in 40% AMS, no wetting agent.
Setting [11] is: powder pesticide (glyphosate acid 2, 2,4-D acid 1.3, others 1 wt %) in 40% AMS, no wetting agent, 0° C., 1 day unless otherwise specified.
Setting [12] is: powder pesticide (glyphosate acid 2, 2,4-D acid 1.3, others 1 wt %) in URAN 32, no wetting agent, 0° C., 1 day unless otherwise specified.
The mark [13] stands for this setting: powder pesticide (glyphosate acid 2, 2,4-D acid 1.3, others 1 wt %) in Water, no wetting agent.
[14] abbreviates: powder pesticide (glyphosate acid 2, 2,4-D acid 1.3, others 1 wt %) in Water, no wetting agent, 0° C., 1 day unless otherwise specified.
[15] abbreviates: 1 wt % powder pesticide in 99 wt % 10-34-0, no wetting agent.
Where [16] appears, read: 1 wt % powder pesticide in 99 wt % 40% AMS, no wetting agent.
Setting [17] is: 1 wt % powder pesticide in 99 wt % URAN 32, no wetting agent.
Setting [18] is: 1 wt % powder pesticide in 99 wt % Water, no wetting agent.
Where [19] appears, read: 30 wt % powder pesticide in 70 wt % 10-34-0, no wetting agent.

On to `Cc1c(COC(=O)[C@@H]2[C@H](/C=C(\Cl)C(F)(F)F)C2(C)C)cccc1-c1ccccc1` (racemic) [Bifenthrin], for which the “Comment: powder sank or floated” value in series [1] (setting [4]) is on record as “floated”; in series [1] (setting [5]), “sank”; in series [1] (setting [6]), “floated”; in series [1] (setting [7]), “sank”. The “Comment: suitability” value in series [1] (setting [4]), in series [1] (setting [5]), in series [1] (setting [6]) and in series [1] (setting [7]) was “Suitable” throughout. Moreover, the “crystal growth in the fertilizer solutions tested” value in series [1] is listed as “did not have crystal growth”.

Regarding `O=C(O)COc1ccc(Cl)cc1Cl` [2,4-D acid], the “Comment: suitability” value in series [2] (setting [8]) is “particles. Not suitable”; in series [2] (setting [10]), “particles. Not suitable”; in series [2] (powder pesticide (glyphosate acid 2, 2,4-D acid 1.3, others 1 wt %) in URAN 32, no wetting agent), “particles. Not suitable”; in series [2] (setting [13]) it was “particles. Not suitable”. The “Comment: crystal growth or other change” value in series [2] (setting [9]), in series [2] (setting [11]), in series [2] (setting [12]) and in series [2] (setting [14]) was “Crystal growth between powder” throughout. Further, the “Comment: dissolution” value in series [2] (setting [9]), in series [2] (setting [11]), in series [2] (setting [12]) and in series [2] (setting [14]) was “Not dissolved” throughout. Moreover, the “Comment: powder sank or floated” value in series [2] (setting [9]), in series [2] (setting [11]), in series [2] (setting [12]) and in series [2] (setting [14]) was “Powder sank” each time. For the same molecule, in series [2], the “suitability for suspension in fertilizer solutions” value (from here on “suitability for suspension”) is listed as “may not be suitable”.

Turning to `CCCCC(CC)COC(=O)CC(C(=O)OCC(CC)CCCC)S(=O)(=O)O.[Na]` (stereo not shown) [Aerosol AOT-75, sodium bis (2-ethyl hexyl) sulfosuccinate], the “Surfactant Suitability” value in series [3] (27-4-0 99, surfactant 1 wt) was “Not suitable”. Besides, the “suitability for the fertilizers tested” value in series [3] (review of table 10) is listed as “not suitable”.

`CCNc1nc(Cl)nc(NC(C)C)n1` [Atrazine]: the “Comment: powder sank or floated” value was “floated” in series [1] (setting [15]); “floated” in series [1] (setting [17]); “floated” in series [1] (setting [4]); “floated” in series [1] (setting [5]); “floated” in series [1] (setting [6]); “sank” in series [1] (setting [7]). For the same molecule, the “Comment: suitability” value in series [1] (setting [15]), in series [1] (setting [16]), in series [1] (setting [17]), in series [1] (setting [18]), in series [1] (setting [4]) and in series [1] (setting [5]) was “Suitable” throughout. For the same molecule, the “Comment: suitability” value in series [1] (setting [6]) and in series [1] (setting [7]) was “Suitable” throughout. In series [1], the “crystal growth in the fertilizer solutions tested” value is on record as “did not have crystal growth”.

Regarding `COc1c(Cl)ccc(Cl)c1C(=O)O` [Dicamba acid], the “Comment: suitability” value in series [2] (setting [8]) and in series [2] (setting [13]) was “Not suitable” throughout. The “Comment: crystal growth or other change” value in series [2] (setting [9]) is on record as “Crystal formed at bottom at 0 C”; in series [2] (setting [11]) it was “Oily drop formed at bottom”; in series [2] (setting [14]), “Crystal formed at 0 C. and”. In addition, in series [2] (setting [12]), the “Comment: dissolution” value is listed as “Dissolved”. Besides, in series [2], the “suitability for suspension” value is given as “may not be suitable”.

For `CN(C)C(=O)Nc1ccc(Cl)c(Cl)c1` [Diuron], the “Comment: powder sank or floated” value in series [1] (setting [15]) is “sank and some floated”; in series [1] (setting [17]) it was “sank”; in series [1] (setting [5]) it was “sank”; in series [1] (setting [6]), “sank”; in series [1] (setting [7]), “sank”. Further, the “Comment: suitability” value in series [1] (setting [15]), in series [1] (setting [16]), in series [1] (setting [17]), in series [1] (setting [18]), in series [1] (setting [4]) and in series [1] (setting [5]) was “Suitable” throughout. For the same molecule, the “Comment: suitability” value in series [1] (setting [6]) and in series [1] (setting [7]) was “Suitable” each time. Moreover, the “crystal growth in the fertilizer solutions tested” value in series [1] is given as “did not have crystal growth”.

For the molecule `O=C(O)CNCP(=O)(O)O` [Glyphosate acid], the “Comment: dissolution” value in series [2] (setting [19]) was “Powder not dissolved. Powder”; in series [2] (setting [9]), “Dissolved at room temp”; in series [2] (setting [11]), “Dissolved”; in series [2] (setting [14]) it was “Not dissolved”. The “Comment: suitability” value in series [2] (setting [19]) was “at room temp. Not suitable”; in series [2] (setting [10]) it was “Not suitable”. Moreover, the “Comment: crystal growth or other change” value in series [2] (30 wt % powder pesticide in 70 wt % 10-34-0, no wetting agent, at room temp) is “Crystal growth on container wall”; in series [2] (setting [14]), “Crystal growth at room temp”. For the same molecule, in series [2], the “suitability for suspension” value is “may not be suitable”.

With `O=[N+]([O-])NC1=NCCN1Cc1ccc(Cl)nc1` [Imidaclopid], the “solubility in URAN 32” value in series [1] is listed as “high solubility”. The “Comment: suitability” value in series [1] (setting [15]) is reported as “Suitable”; in series [1] (setting [16]), “Suitable”; in series [1] (setting [17]), “Not suitable”; in series [1] (setting [18]), “Suitable”; in series [1] (setting [4]), “Suitable”; in series [1] (setting [5]), “Suitable”. The “Comment: suitability” value in series [1] (setting [6]) is “Not suitable”; in series [1] (setting [7]), “Suitable”. The “Comment: dissolution” value in series [1] (setting [17]) and in series [1] (setting [6]) was “Dissolved” throughout. Besides, the “Comment: powder sank or floated” value in series [1] (setting [5]) and in series [1] (setting [7]) was “sank” in each case. In addition, the “crystal growth in the fertilizer solutions tested” value in series [1] is “did not have crystal growth”.

With `CCCCC(C#N)(Cn1cncn1)c1ccc(Cl)cc1` (stereo not shown) [Myclobutanil], the “Comment: powder sank or floated” value in series [1] (setting [15]) is listed as “floated”; in series [1] (setting [16]) it was “sank”; in series [1] (setting [17]), “floated”; in series [1] (setting [18]) it was “sank”; in series [1] (setting [4]) it was “floated”; in series [1] (setting [5]), “floated”. The figures for the “Comment: powder sank or floated” value in series [1] (setting [6]) and in series [1] (setting [7]) were “floated” and “sank”, respectively. Moreover, the “Comment: suitability” value in series [1] (setting [15]), in series [1] (setting [16]), in series [1] (setting [17]), in series [1] (setting [18]), in series [1] (setting [4]) and in series [1] (setting [5]) was “Suitable” throughout. The “Comment: suitability” value in series [1] (setting [6]) and in series [1] (setting [7]) was “Suitable” in each case. In series [1], the “crystal growth in the fertilizer solutions tested” value was “did not have crystal growth”.

As for `CCCCCCCCCCCC(=O)OCCOCCOCCOCCOCCOCCOCCOCCOCCOCCOCCOCCOCCOCCOCCOCCOCCOCCOCCOCCOCC(OCCOCCOCCOCCOCCOCCOCCOCCOCCOCCOCCOCCOCCOCCOCCOCCOCCOCCOCCOCCO)C1OCC(OCCOCCOCCOCCOCCOCCOCCOCCOCCOCCOCCOCCOCCOCCOCCOCCOCCOCCOCCOCCO)C1OCCOCCOCCOCCOCCOCCOCCOCCOCCOCCOCCOCCOCCOCCOCCOCCOCCOCCOCCOCCO` (stereo not shown) [Tween 20, Polysorbate-20], the Appearance entry in series [3] (27-4-0 99.4, surfactant 0.6 wt) is reported as “Clear”.

For “C810-3EO sulfate [C810-3EO sulfate (40%)]”, the Appearance result in series [3] (27-4-0 89.4, surfactant 10.6 wt) is “Clear”.
